# Species: Rattus norvegicus
# Assay: Open TG-GATES - Regimen: Single
# Assay type: toxicity, organism-based, Sprague-Dawley
# Parameters: regimen Single, gender Male, age 6 weeks
# Settings: in vivo, po, route gavage; for APTT / Bas / Eos / Fbg / Hb / Ht / Lym / MCH / MCHC / MCV / Mono / Neu / Plat / RBC / Ret / WBC: tissue Blood; for KIDNEY_L / KIDNEY_R / KIDNEY_TOTAL: tissue Kidney; for LIVER: tissue Liver; for ALP / ALT / AST / CRE / DBIL / GLC / IP / K / LDH / Na / PL / RALB / TBIL / TC / TG / TP / gamma-GTP: tissue Plasma
# [1] = 100 mg/kg, 24 h, dose level Low
# [2] = 300 mg/kg, 3 h, dose level Middle
# [3] = 300 mg/kg, 6 h, dose level Middle
# [4] = 300 mg/kg, 9 h, dose level Middle
# [5] = 300 mg/kg, 24 h, dose level Middle
smiles,measurement,setting,value
CN(C)CCC=C1c2ccccc2COc2ccccc21 [DOXEPIN],TERMINAL_BW,"100 mg/kg, 9 h, dose level Low",193.4 g
same,APTT,"100 mg/kg, 9 h, dose level Low",24.3 s
same,Bas,"100 mg/kg, 9 h, dose level Low",0%
same,Eos,"100 mg/kg, 9 h, dose level Low",0.8%
same,Fbg,"100 mg/kg, 9 h, dose level Low",284.4 mg/dL
same,Hb,"100 mg/kg, 9 h, dose level Low",13.5 g/dL
same,Ht,"100 mg/kg, 9 h, dose level Low",40.9%
same,Lym,"100 mg/kg, 9 h, dose level Low",80.4%
same,MCH,"100 mg/kg, 9 h, dose level Low",21.9 pg
same,MCHC,"100 mg/kg, 9 h, dose level Low",32.9%
same,MCV,"100 mg/kg, 9 h, dose level Low",66.5 fL
same,Mono,"100 mg/kg, 9 h, dose level Low",2.4%
same,Neu,"100 mg/kg, 9 h, dose level Low",16%
same,Plat,"100 mg/kg, 9 h, dose level Low",117.4 x10_4/uL
same,RBC,"100 mg/kg, 9 h, dose level Low",614.6 x10_4/ul
same,Ret,"100 mg/kg, 9 h, dose level Low",8.5%
same,WBC,"100 mg/kg, 9 h, dose level Low",81.6 x10_2/uL
same,KIDNEY_L,"100 mg/kg, 9 h, dose level Low",0.9 g
same,KIDNEY_R,"100 mg/kg, 9 h, dose level Low",0.9 g
same,KIDNEY_TOTAL,"100 mg/kg, 9 h, dose level Low",1.8 g
same,LIVER,"100 mg/kg, 9 h, dose level Low",7.7 g
same,ALP,"100 mg/kg, 9 h, dose level Low",1637.2 IU/L
same,ALT,"100 mg/kg, 9 h, dose level Low",33.8 IU/L
same,AST,"100 mg/kg, 9 h, dose level Low",69.4 IU/L
same,CRE,"100 mg/kg, 9 h, dose level Low",0.2 mg/dL
same,DBIL,"100 mg/kg, 9 h, dose level Low",0.002 mg/dL
same,GLC,"100 mg/kg, 9 h, dose level Low",167 mg/dL
same,IP,"100 mg/kg, 9 h, dose level Low",10.4 mg/dL
same,K,"100 mg/kg, 9 h, dose level Low",4 meq/L
same,LDH,"100 mg/kg, 9 h, dose level Low",99.6 IU/L
same,Na,"100 mg/kg, 9 h, dose level Low",144.8 meq/L
same,PL,"100 mg/kg, 9 h, dose level Low",135 mg/dL
same,RALB,"100 mg/kg, 9 h, dose level Low",2.5 g/dL
same,TBIL,"100 mg/kg, 9 h, dose level Low",0.062 mg/dL
same,TC,"100 mg/kg, 9 h, dose level Low",72.6 mg/dL
same,TG,"100 mg/kg, 9 h, dose level Low",26.6 mg/dL
same,TP,"100 mg/kg, 9 h, dose level Low",5.3 g/dL
same,gamma-GTP,"100 mg/kg, 9 h, dose level Low",1 IU/L
same,TERMINAL_BW,[1],208.9 g
same,APTT,[1],17.3 s
same,Bas,[1],0%
same,Eos,[1],0.8%
same,Fbg,[1],264.6 mg/dL
same,Hb,[1],14 g/dL
same,Ht,[1],41.3%
same,Lym,[1],78.2%
same,MCH,[1],21.9 pg
same,MCHC,[1],34%
same,MCV,[1],64.4 fL
same,Mono,[1],2.6%
same,Neu,[1],17.4%
same,Plat,[1],125.2 x10_4/uL
same,RBC,[1],641.6 x10_4/ul
same,Ret,[1],7.3%
same,WBC,[1],97.7 x10_2/uL
same,KIDNEY_L,[1],0.9 g
same,KIDNEY_R,[1],0.9 g
same,KIDNEY_TOTAL,[1],1.8 g
same,ALP,[1],2097.8 IU/L
same,ALT,[1],45 IU/L
same,AST,[1],75.8 IU/L
same,CRE,[1],0.2 mg/dL
same,DBIL,[1],0.006 mg/dL
same,GLC,[1],176.4 mg/dL
same,IP,[1],7.5 mg/dL
same,K,[1],4 meq/L
same,LDH,[1],112.6 IU/L
same,Na,[1],142 meq/L
same,PL,[1],155.8 mg/dL
same,RALB,[1],2.6 g/dL
same,TBIL,[1],0.04 mg/dL
same,TC,[1],80.4 mg/dL
same,TG,[1],101 mg/dL
same,TP,[1],5.6 g/dL
same,gamma-GTP,[1],1 IU/L
same,TERMINAL_BW,[2],198.6 g
same,APTT,[2],17.8 s
same,Bas,[2],0.2%
same,Eos,[2],0.4%
same,Fbg,[2],275.2 mg/dL
same,Hb,[2],12.9 g/dL
same,Ht,[2],40%
same,Lym,[2],73%
same,MCH,[2],21.7 pg
same,MCHC,[2],32.1%
same,MCV,[2],67.4 fL
same,Mono,[2],3.2%
same,Neu,[2],22.4%
same,Plat,[2],112.8 x10_4/uL
same,RBC,[2],593.6 x10_4/ul
same,Ret,[2],10%
same,WBC,[2],63.7 x10_2/uL
same,KIDNEY_L,[2],0.9 g
same,KIDNEY_R,[2],0.9 g
same,KIDNEY_TOTAL,[2],1.8 g
same,LIVER,[2],9 g
same,ALP,[2],1422.6 IU/L
same,ALT,[2],48 IU/L
same,AST,[2],76.6 IU/L
same,CRE,[2],0.1 mg/dL
same,DBIL,[2],0.002 mg/dL
same,GLC,[2],187.4 mg/dL
same,IP,[2],10 mg/dL
same,K,[2],3.9 meq/L
same,LDH,[2],71.2 IU/L
same,Na,[2],145.6 meq/L
same,PL,[2],147.6 mg/dL
same,RALB,[2],2.4 g/dL
same,TBIL,[2],0.044 mg/dL
same,TC,[2],78.6 mg/dL
same,TG,[2],64.6 mg/dL
same,TP,[2],5.3 g/dL
same,gamma-GTP,[2],1.2 IU/L
same,TERMINAL_BW,[3],194.4 g
same,APTT,[3],17.3 s
same,Bas,[3],0.2%
same,Eos,[3],0.8%
same,Fbg,[3],290 mg/dL
same,Hb,[3],12.9 g/dL
same,Ht,[3],40%
same,Lym,[3],74.2%
same,MCH,[3],21.3 pg
same,MCHC,[3],32.4%
same,MCV,[3],66 fL
same,Mono,[3],3%
same,Neu,[3],21%
same,Plat,[3],126.3 x10_4/uL
same,RBC,[3],605.6 x10_4/ul
same,Ret,[3],9.5%
same,WBC,[3],84.5 x10_2/uL
same,KIDNEY_L,[3],0.9 g
same,KIDNEY_R,[3],0.9 g
same,KIDNEY_TOTAL,[3],1.8 g
same,LIVER,[3],7.8 g
same,ALP,[3],1630.2 IU/L
same,ALT,[3],42.2 IU/L
same,AST,[3],83.2 IU/L
same,CRE,[3],0.1 mg/dL
same,DBIL,[3],0 mg/dL
same,GLC,[3],185 mg/dL
same,IP,[3],11.1 mg/dL
same,K,[3],3.7 meq/L
same,LDH,[3],85.2 IU/L
same,Na,[3],146.2 meq/L
same,PL,[3],141.6 mg/dL
same,RALB,[3],2.5 g/dL
same,TBIL,[3],0.054 mg/dL
same,TC,[3],82.6 mg/dL
same,TG,[3],11.2 mg/dL
same,TP,[3],5.4 g/dL
same,gamma-GTP,[3],1.4 IU/L
same,TERMINAL_BW,[4],192.2 g
same,APTT,[4],17.8 s
same,Bas,[4],0%
same,Eos,[4],1%
same,Fbg,[4],275 mg/dL
same,Hb,[4],13.2 g/dL
same,Ht,[4],39.9%
same,Lym,[4],77.6%
same,MCH,[4],21.9 pg
same,MCHC,[4],33%
same,MCV,[4],66.4 fL
same,Mono,[4],2.6%
same,Neu,[4],18.4%
same,Plat,[4],130.9 x10_4/uL
same,RBC,[4],603.6 x10_4/ul
same,Ret,[4],9.4%
same,WBC,[4],76.7 x10_2/uL
same,KIDNEY_L,[4],0.9 g
same,KIDNEY_R,[4],0.9 g
same,KIDNEY_TOTAL,[4],1.7 g
same,LIVER,[4],7.6 g
same,ALP,[4],1517.4 IU/L
same,ALT,[4],38.2 IU/L
same,AST,[4],64.8 IU/L
same,CRE,[4],0.1 mg/dL
same,DBIL,[4],0.002 mg/dL
same,GLC,[4],184 mg/dL
same,IP,[4],10.4 mg/dL
same,K,[4],3.9 meq/L
same,LDH,[4],74.2 IU/L
same,Na,[4],145.2 meq/L
same,PL,[4],142 mg/dL
same,RALB,[4],2.5 g/dL
same,TBIL,[4],0.06 mg/dL
same,TC,[4],79.2 mg/dL
same,TG,[4],12.2 mg/dL
same,TP,[4],5.5 g/dL
same,gamma-GTP,[4],1 IU/L
same,TERMINAL_BW,[5],185.6 g
same,APTT,[5],16.9 s
same,Bas,[5],0%
same,Eos,[5],0.8%
same,Fbg,[5],277.2 mg/dL
same,Hb,[5],14.8 g/dL
same,Ht,[5],43.9%
same,Lym,[5],81.2%
same,MCH,[5],22 pg
same,MCHC,[5],33.8%
same,MCV,[5],65.2 fL
same,Mono,[5],2.2%
same,Neu,[5],15.6%
same,Plat,[5],130.7 x10_4/uL
same,RBC,[5],672.8 x10_4/ul
same,Ret,[5],7.4%
same,WBC,[5],65.5 x10_2/uL
same,KIDNEY_L,[5],0.9 g
same,KIDNEY_R,[5],0.9 g
same,KIDNEY_TOTAL,[5],1.8 g
same,LIVER,[5],7.3 g
same,ALP,[5],1482.6 IU/L
same,ALT,[5],31.8 IU/L
same,AST,[5],59 IU/L
same,CRE,[5],0.2 mg/dL
same,DBIL,[5],0 mg/dL
same,GLC,[5],173.2 mg/dL
same,IP,[5],9.1 mg/dL
same,K,[5],4.1 meq/L
same,LDH,[5],87 IU/L
same,Na,[5],144.6 meq/L
same,PL,[5],131.8 mg/dL
same,RALB,[5],2.6 g/dL
same,TBIL,[5],0.046 mg/dL
same,TC,[5],74.4 mg/dL
same,TG,[5],30.6 mg/dL
same,TP,[5],5.7 g/dL
same,gamma-GTP,[5],1 IU/L

# Reference: ChEMBL document CHEMBL3885861, “Open TG-GATES”
